Non-standard residues stand in square brackets, D forms with d. Residues, ends and D or L forms follow the SMILES beside them. αMeP = C[C@@]1(C(=O)O)CCCN1
Assays:
[1] = test system: adult MeCP2+/- female mice; experiment: Optical imaging of intrinsic signals, ocular dominance plasticity; assay type: in vivo, mouse; conditions: monocularly deprived for 4 days, treated concurrently; aged P60 or more
Protocol: For the survival measurements, the nocturnal activity analysis and the immunoblot analysis, G-2-MePE (synthesised Albany Molecular Research Inc. (Albany, N.Y.) and supplied by Neuren Pharmaceuticals Limited) is administered daily via intra-peritoneal injections (20 mg/kg, vehicle=saline, 0.01% BSA). The treatment starts at PI 5 and is maintained throughout the course of the experiments. For intracellular physiology experiments, the mice are injected daily with G-2-MePE (20 mg/kg body weight, vehicle=saline, 0.01% BSA) for 2 weeks, from P15 to P28-P32 when they are used for acute slice preparation. For optical imaging experiments, mice are injected with G-2-MePE (20 mg/kg body weight, vehicle=saline, 0.01% BSA) daily from the day of the lid suture to the day of imaging.
Adult (>P60) wild type (SVEV or BL6) and MeCP2 (+/−) mutant females (BL6) are used for this experiment. The wild type control group is composed of both wild type littermates of MeCP2+/− females or wild type age matched SVEV females. For monocular deprivation, animals are anesthetized with Avertin (0.016 ml/g) and the eyelids of one eye is sutured for 4 days. […] During the imaging session, the animal is constantly oxygenated, its temperature maintained with a heating blanket and the eyes periodically treated with silicone oil; physiological conditions are constantly monitored. […]

[2] = test system: hippocampal slices of heterozygous Shank3-deficient mice; experiment: Shank3-deficient mouse model, hippocampal slice electrophysiology; assay type: in vivo; conditions: 15 or 60 mg/kg oral b.i.d. for 14 days
Protocol: 1 to 3 month old wild type and heterozygous Shank3-deficient mice are divided into 4 treatment groups: placebo treated wild-type, placebo treated Shank3-deficient group and two Shank3-deficient G-2-MePE treated groups. The animals are given placebo (water) or G-2-MePE formulated in water administered orally, b.i.d for 14 days. G-2-MePE is administered at two doses: 15 or 60 mg/kg.
Post-mortem, acute hippocampal slices (350 μm) are prepared from mice using a tissue chopper. Slices are maintained and experiments are conducted at 32° C. Slices are perfused with Ringer's solution containing (in mM): NaCl, 125.0; KCl, 2.5; MgSO4, 1.3; NaH2PO4, 1.0; NaHCO3, 26.2; CaCl2, 2.5; glucose, 11.0. The Ringer's solution is bubbled with 95% O2/5% CO2, at 32° C., during extracellular recordings (electrode solution: 3 M NaCl). Slices are maintained for 1 hr prior to establishment of a baseline of field excitatory postsynaptic potentials (fEPSPs) recorded from stratum radiatum in area CA1, evoked by stimulation of the Schaffer collateral-commissural afferents (100 μs pulses every 30 s) with bipolar tungsten electrodes placed into area CA3. Test stimulus intensity is adjusted to obtain fEPSPs with amplitudes that are one-half of the maximal response. The EPSP initial slope (mV/ms) is determined from the average waveform of four consecutive responses. Input-output (I/O) curves are generated by plotting the fEPSP slope versus fiber volley amplitude in low-Mg^2+ (0.1 mM) solution. AMPA receptor-mediated and NMDA receptor-mediated I/O relationships are measured in the presence of ionotropic glutamate receptor antagonists: […] APV (50 μM) and 6-cyano-7-nitroquinoxaline-2,3-dione CNQX (100 μM). Paired-pulse responses are measured with interstimulus intervals of 10 to 200 ms, and are expressed as the ratio of the average responses to the second stimulation pulse to the first stimulation pulse. […]

[3] = vs placebo treated Shank3-deficient group

C[C@@]1(C(=O)N[C@@H](CCC(=O)O)C(=O)O)CCCN1C(=O)CN [Example G-2-MePE, Glycyl-L-2-methylprolyl-L-glutamic acid] (H-Gly-[αMeP]-Glu-OH)
OD plasticity [1]: reduces
AMPA receptor-mediated field potentials [2]: normalizes
average slope of I/O function [2, 3]: increase
hippocampal long-term potentiation (LTP) and its maintenance [2, 3]: increased

— patent US9212204B2, “Treatment of rett syndrome using glycyl-L-2-methylprolyl-L-glutamic acid” (priority 2011, dated 2015)
